Our source for the inhibition and IC50 values is ChEMBL document CHEMBL1149507, “Synthesis, structure, and bioactivity of N'-substituted benzylidene-3,4,5-trimethoxybenzohydrazide and 3-acetyl-2-substituted phenyl-5-(3,4,5-trimethoxyphenyl)-2,3-dihydro-1,3,4-oxadiazole derivatives” (Bioorg Med Chem Lett, 2006).

Test [1] concerns PC-3. Kind of test: Antiproliferative activity against human PC3 cell line at 5 uM by MTT assay. It is filed as functional. Background: Tetrazolium dyes change colour on reduction, which living cells bring about.
In test [2] the test system is BGC-823. Kind of test: Antiproliferative activity against human BGC823 cell line at 5 uM by MTT assay. Type of test: functional.
For test [3], the system named is Bcap37. The test can be described thus: Antiproliferative activity against human Bcap37 cell line at 1 uM by MTT assay. It is filed as functional.
For test [4], the system named is BGC-823. The test can be described thus: Antiproliferative activity against human BGC823 cell line at 1 uM by MTT assay. Type of test: functional.
Test [5] deals with PC-3. Kind of test: Antiproliferative activity against human PC3 cell line by MTT assay. It is filed as functional, cell-based.
The test system of test [6] is PC-3. Kind of test: Antiproliferative activity against human PC3 cell line at 1 uM by MTT assay. It is filed as functional.
Test [7] concerns Bcap37. Kind of test: Antiproliferative activity against human Bcap37 cell line at 5 uM by MTT assay. Type of test: functional.

For `COc1cc(C2=NN(C(C)=O)C(c3cc(Cl)cc(Cl)c3)O2)cc(OC)c1OC` (stereo not given), the values for the inhibition at 5 µM in test [1], in test [2] and in test [7] were 93.9%, 6.6% and 1.3%, respectively. The inhibition (as a rule, the drop in the measured response relative to a control, in per cent) at 1 µM was -1.1% in test [3], 0% in test [4] and 52.7% in test [6]. Also, in test [5], the midpoint of inhibition, the IC50, lay at 1700 nM.

As to `COc1ccc(C2OC(c3cc(OC)c(OC)c(OC)c3)=NN2C(C)=O)c(OC)c1` (stereo not given), the inhibition at 5 µM is 92% in test [1], -3.1% in test [2] and 2.5% in test [7]. In addition, the inhibition at 1 µM in test [3] is -0.3%; in test [4], 6.3%; in test [6] it was 69.5%. In addition, inhibition in test [5] was half-maximal at 300 nM (IC50).

`COc1ccc(OC)c(C2OC(c3cc(OC)c(OC)c(OC)c3)=NN2C(C)=O)c1` (stereo not given): the inhibition at 5 µM was 43.2% in test [1], 18.2% in test [2] and 2.3% in test [7]. Also, the figures for the inhibition at 1 µM in test [3], in test [4] and in test [6] were -3.8%, 0.4% and 37.2%, respectively.

In the case of `COc1cc(C2=NN(C(C)=O)C(c3cccc(F)c3)O2)cc(OC)c1OC` (stereo not given), the inhibition at 5 µM was found to be 43.5% in test [1], 37.7% in test [2] and 23.8% in test [7]. The inhibition at 1 µM in test [3] came to 14%; in test [4], 14.7%; in test [6] it was 16.5%.

`COc1ccc(OC)c(/C=N/NC(=O)c2cc(OC)c(OC)c(OC)c2)c1`: the inhibition at 5 µM worked out at 51.7% in test [1], 10.1% in test [2] and 0% in test [7]. The inhibition at 1 µM in test [3] stood at 0%; in test [4] it was 0.1%; in test [6], 30.9%.

Consider `COc1cccc(/C=N/NC(=O)c2cc(OC)c(OC)c(OC)c2)c1OC`, for which the figures for the inhibition at 5 µM in test [1], in test [2] and in test [7] were 67%, 14.2% and 12.3%, respectively. Also, the inhibition at 1 µM in test [3] was -2.3%; in test [4] it was -0.1%; in test [6], 53.2%.

Consider `COc1cc(C(=O)N/N=C/c2cc(Cl)cc(Cl)c2)cc(OC)c1OC`, for which the inhibition at 5 µM came out at 46.3% in test [1], 9.2% in test [2] and 3.6% in test [7]. The inhibition at 1 µM in test [3] was -5.4%; in test [4], -7.5%; in test [6] it was 22.1%.

`COc1cc(C(=O)N/N=C/c2ccc(C(F)(F)F)cc2)cc(OC)c1OC`: the results for the inhibition at 5 µM in test [1], in test [2] and in test [7] were 61.6%, 56.3% and 65.6%, respectively. For the same compound, the inhibition at 1 µM in test [3] stood at 61.8%; in test [4] it was 47.4%; in test [6], 59.9%.
